Consider one compound from patent publication US9290421B2, “Hypervalent radioactive astatine or iodine compounds, and preparation methods thereof” (Institut National de la Santé de la Recherche Medicalé, priority 2010, dated 2016).

Molecules are shown by their SMILES.

In general, melting point refers to the temperature, or range, at which the solid turns liquid. Regarding `Cc1ccc2c(c1)C(C(F)(F)F)(C(F)(F)F)OI2Br` [Compound 5a, 1-Bromo-1,3-dihydro-5-methyl-3,3-bis(trifluoromethyl)-1,2-benziodoxole], the melting point lay in the range of 189 to 190 °C.
